The values below come from ChEMBL document CHEMBL2157948, “Design, synthesis, and structure-activity-relationship of phenyl imidazoles as potent Smoothened antagonists” (Bioorg Med Chem Lett, 2012).

Values after ≈ are worked out from the molar mass of the structure shown. Some results are limits rather than exact numbers.

Series [1] addresses T1, Protein smoothened (Mus musculus, UniProt P56726). As to the kind of experiment: Antagonist activity at Smo in mouse TM3 cells expressing Hh12 assessed as inhibition of 25 nM Ag1.5-induced Gli expression incubated for 30 mins prior to Ag1.5-induction measured after 48 hrs by luciferase reporter gene assay. The series is classed as functional, cell-based.
In series [2] the test system is Mus musculus. As to the kind of experiment: Dose normalised AUC in po dosed mouse. The series is classed as ADME, organism-based. The note with it: in vivo.
Series [3] concerns the target T1, Protein smoothened. As to the kind of experiment: Antagonist activity at Smo in mouse TM3 cells expressing Hh12 assessed as inhibition of 1 nM Ag1.5-induced Gli expression incubated for 30 mins prior to Ag1.5-induction measured after 48 hrs by luciferase reporter gene assay. The series is classed as functional, cell-based. (In a reporter assay the amount or activity of a reporter protein is the signal.)

Series [4] has as its system Mus musculus. Nature of the series: Clearance in po dosed mouse. The series is classed as ADME, organism-based. Particulars: in vivo.
Series [5] can be described thus: Plasma protein binding in human. The series is classed as ADME, cell-free. Particulars: read-out: PPB (converted).
Series [6] is described as follows: Plasma protein binding in rat. The format is ADME, cell-free. Particulars: read-out: PPB (converted).
The nature of series [7]: Oral bioavailability in mouse. The series is classed as ADME, organism-based. Particulars: in vivo.
A short description of series [8]: Permeability of the compound by PAMPA assay. The format is ADME. (The PAMPA barrier holds no transporters, so it reflects passive diffusion.)
The target of series [9] is Protein smoothened (Homo sapiens, UniProt Q99835). As to the kind of experiment: Antagonist activity at human Smo expressed in CHO cells assessed as inhibition of BODIPY-cyclopamine binding after 4 hrs by fluorescence assay. The format is cell-based.
Sequence of Protein smoothened (Homo sapiens, UniProt Q99835) (Q99835 whole entry): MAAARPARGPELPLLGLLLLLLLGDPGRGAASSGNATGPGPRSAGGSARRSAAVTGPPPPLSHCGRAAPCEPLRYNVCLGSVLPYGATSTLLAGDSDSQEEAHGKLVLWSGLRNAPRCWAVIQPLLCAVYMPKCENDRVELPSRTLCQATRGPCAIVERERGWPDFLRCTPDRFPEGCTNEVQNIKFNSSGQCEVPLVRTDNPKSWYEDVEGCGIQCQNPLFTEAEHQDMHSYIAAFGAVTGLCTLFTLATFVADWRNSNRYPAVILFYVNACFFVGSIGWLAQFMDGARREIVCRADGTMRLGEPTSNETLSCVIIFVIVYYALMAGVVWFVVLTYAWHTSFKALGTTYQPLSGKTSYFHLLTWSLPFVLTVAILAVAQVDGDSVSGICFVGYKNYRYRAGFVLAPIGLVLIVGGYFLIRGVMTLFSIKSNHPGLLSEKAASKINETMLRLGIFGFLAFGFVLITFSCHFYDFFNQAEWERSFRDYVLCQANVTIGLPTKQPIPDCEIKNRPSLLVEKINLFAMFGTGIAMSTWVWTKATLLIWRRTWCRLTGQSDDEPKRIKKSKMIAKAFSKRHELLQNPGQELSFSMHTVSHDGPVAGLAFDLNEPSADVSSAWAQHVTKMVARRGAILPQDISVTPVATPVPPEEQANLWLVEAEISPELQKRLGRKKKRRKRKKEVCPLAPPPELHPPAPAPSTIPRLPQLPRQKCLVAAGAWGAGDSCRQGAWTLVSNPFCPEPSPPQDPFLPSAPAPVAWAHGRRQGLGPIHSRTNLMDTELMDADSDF
Series [10] is described as follows: Oral bioavailability in rat at 3 to 30 mg/kg. The format is ADME, organism-based. The note with it: in vivo.
Series [11] can be described thus: Mean residence time in rat at 3 to 30 mg/kg. The series is classed as ADME, organism-based. Set-up: dose 3-30 mg/kg. Particulars: in vivo.
Series [12] in a line: Volume of distribution at steady state in rat at 3 to 30 mg/kg. The format is ADME, organism-based. Set-up: dose 3-30 mg/kg. The note with it: in vivo, read-out: Vdss.
A short description of series [13]: Aqueous solubility of the compound at pH 1. The series is classed as physicochemical.
Series [14] is described as follows: Volume of distribution at steady state in mouse. The format is ADME, organism-based. Particulars: in vivo, read-out: Vdss.
Series [15] concerns the target T1, Protein smoothened. Nature of the series: Antagonist activity at mouse Smo expressed in CHO cells assessed as inhibition of BODIPY-cyclopamine binding after 4 hrs by fluorescence assay. The format is cell-based.
Series [16] in a line: Clearance in rat at 3 to 30 mg/kg. The format is ADME, organism-based. Set-up: dose 3-30 mg/kg. The note with it: in vivo.
The nature of series [17]: Mean residence time in mouse. The note with it: in vivo. The format is ADME, organism-based.
Series [18] is described as follows: Ratio of drug uptake in brain to plasma in mouse. The series is classed as ADME, organism-based. Particulars: read-out: BPR.
Series [19] in a line: Aqueous solubility of the compound at pH 7. The series is classed as physicochemical.
Series [20] can be described thus: Clearance in mouse. The series is classed as ADME, organism-based. Particulars: in vivo.

T1 sequence (P56726 whole entry): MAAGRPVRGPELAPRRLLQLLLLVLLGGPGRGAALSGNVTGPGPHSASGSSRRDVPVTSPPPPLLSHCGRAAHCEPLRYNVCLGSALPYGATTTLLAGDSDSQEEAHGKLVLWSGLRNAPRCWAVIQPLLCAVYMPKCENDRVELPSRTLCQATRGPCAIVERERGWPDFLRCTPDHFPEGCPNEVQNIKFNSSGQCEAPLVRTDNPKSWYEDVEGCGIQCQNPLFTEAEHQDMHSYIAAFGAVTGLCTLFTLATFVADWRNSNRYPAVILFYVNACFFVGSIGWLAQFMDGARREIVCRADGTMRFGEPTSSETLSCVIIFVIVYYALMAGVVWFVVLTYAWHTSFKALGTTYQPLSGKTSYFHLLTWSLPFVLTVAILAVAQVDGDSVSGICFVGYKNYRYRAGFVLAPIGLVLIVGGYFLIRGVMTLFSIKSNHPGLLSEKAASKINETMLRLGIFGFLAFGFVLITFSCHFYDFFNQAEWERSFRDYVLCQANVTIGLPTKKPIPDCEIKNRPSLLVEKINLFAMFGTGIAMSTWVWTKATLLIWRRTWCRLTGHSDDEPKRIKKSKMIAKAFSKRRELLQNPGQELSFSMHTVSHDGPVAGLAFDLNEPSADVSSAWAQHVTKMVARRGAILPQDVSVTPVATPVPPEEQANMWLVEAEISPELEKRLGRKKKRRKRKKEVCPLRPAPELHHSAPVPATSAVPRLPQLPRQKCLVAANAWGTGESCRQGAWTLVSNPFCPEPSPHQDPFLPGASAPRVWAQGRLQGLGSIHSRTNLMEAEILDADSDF

For the compound `Clc1ccc(Nc2nccc3cc(N4CCOCC4)ccc23)cc1-c1ncc(-c2ccccc2)[nH]1`, the IC50 worked out at 2.6 nM at Protein smoothened [1] and 0.1 nM at Protein smoothened [3]. In the series on Mus musculus [2], the AUC/dose was found to be 101 nM·h.
`C[C@@H]1CN(c2ccc3c(Nc4ccc(Cl)c(-c5ncc(-c6ccccc6)[nH]5)c4)nccc3c2)C[C@H](C)O1` had a clearance in the series with Mus musculus [4] of 24.7 mL/min/kg. Further, the AUC/dose with Mus musculus [2] was 499 nM·h.
For the compound `O=S1(=O)CCN(c2ccc3c(Nc4ccc(Cl)c(-c5nc(-c6ccccc6)c[nH]5)c4)nccc3c2)CC1`, the IC50 at Protein smoothened [1] was 31 nM; at Protein smoothened [3] it was 2 nM.
For the compound `Clc1ccc(Nc2nccc3ccccc23)cc1-c1ncc(-c2ccccc2)[nH]1`, the IC50 was found to be 157 nM at Protein smoothened [1] and 19 nM at Protein smoothened [3].
For `C[C@@H]1CN(c2ccc3c(Nc4ccc(Cl)c(-c5ncc(-c6ccccc6)[nH]5)c4)nccc3n2)CCO1`, the results for the fraction unbound in series [5] and in series [6] were 0.039 and 0.015, respectively. The bioavailability in series [7] was 82%; in [10] it was 53%. Moreover, the clearance amounted to 32 mL/min/kg with Mus musculus [4], 5 mL/min/kg in [16] and 32 mL/min/kg in [20]. Also, the permeability result in series [8] was “permeable”. Further, the IC50 stood at 4 nM at Protein smoothened [9], 11 nM at Protein smoothened [1], 1.6 nM at Protein smoothened [15] and 0.6 nM on Protein smoothened [3]. For the same compound, the MRT came out at 3.33 h in series [11] and 0.56 h in series [17]. The Vd in series [12] came out at 1 L/kg; in series [14], 1.07 L/kg. For the same compound, the solubility is 93 µg/mL (≈ 187 µM) in series [13] and < 1 µg/mL in series [19]. This compound registered an AUC/dose in the series with Mus musculus [2] of 881 nM·h. Further, in [18], the Kp turned out to be 0.4.
Take `C[C@@H]1CN(c2cnc3c(Nc4ccc(Cl)c(-c5nc(-c6ccccc6)c[nH]5)c4)cccc3n2)C[C@H](C)O1`: the IC50 at Protein smoothened [1] turned out to be 35 nM; on Protein smoothened [3] it was 3 nM.
`C[C@@H]1CN(c2ccc3c(Nc4ccc(Cl)c(-c5ncc(-c6ccccc6)[nH]5)c4)cccc3n2)C[C@H](C)O1`: the IC50 was determined as 5 nM on Protein smoothened [1] and 0.3 nM on Protein smoothened [3]. The same compound showed an AUC/dose in the series with Mus musculus [2] of 492 nM·h.
For `C[C@@H]1CN(c2ccc3c(Nc4ccc(Cl)c(-c5ncc(-c6ccccc6)[nH]5)c4)nccc3c2)CCO1`, the clearance in the series on Mus musculus [4] was determined as 30.9 mL/min/kg. Also, the values for the IC50 on Protein smoothened [1] and at Protein smoothened [3] were 1.6 nM and 0.1 nM, respectively. This compound also registered an AUC/dose with Mus musculus [2] of 533 nM·h.
For the compound `Cc1ccc(NC(=O)c2ccc(N3CCOCC3)cc2)cc1-c1nc(-c2ccccc2)c[nH]1`, the IC50 on Protein smoothened [3] is 0.2 nM.
In the series with Mus musculus [4], `C[C@@H]1CN(c2ccc3c(Nc4ccc(Cl)c(-c5nc(-c6ccccc6)c[nH]5)c4)nccc3n2)C[C@H](C)O1` returned a clearance of 33.1 mL/min/kg. For the same compound, the figures for the IC50 at Protein smoothened [1] and on Protein smoothened [3] were 6 nM and 0.2 nM, respectively. Moreover, in the series on Mus musculus [2], the AUC/dose was 268 nM·h.
For `C[C@@H]1CN(c2ccc3c(Nc4ccc(Cl)c(-c5nc(-c6ccccc6)c[nH]5)c4)ccnc3c2)C[C@H](C)O1`, the concentration for half-maximal inhibition (IC50) came to 8 nM on Protein smoothened [1] and 0.4 nM on Protein smoothened [3]. The compound also yielded an AUC/dose in the series on Mus musculus [2] of 0 nM·h.

Broadly, the IC50 is the concentration at which inhibition is half-maximal. What is called bioavailability is dose-corrected exposure relative to a reference, in per cent. Read a high bioavailability as much systemic uptake. As usually defined, the MRT is the average time that molecules of a dose stay in the body. Broadly, the solubility is the concentration that dissolves in the medium under given conditions.
